Entries after “also recorded” stand apart in the source; their conditions may differ. Ends that are not written are not given here.
Assays:
KDR [1] = test: Competition assay of 125I-VEGF binding to CHO-KDR cells; set-up: block of VEGF binding to CHO-KDR cells: dose or concentration left out as unconfirmed; details: for inhibitory effect on VEGF binding to KDR: fixed peptide concentration 2.1×10^−4M, heparin 1.8 μg/ml
Description: FIG. 1. […] (B) Effect of heparin. […] Data correspond to the mean and standard deviations of triplicate samples.
FIG. 4. […] Data represent the means and standard deviations of triplicate samples.
FIG. 5. […] Data represent the mean and standard deviations of triplicate samples.
(§1) Competition assay of binding to CHO-KDR cells. CHO-KDR cells were seeded in 24-well plates at a density of 5×10^5 cells/well. After 24 h, subconfluent plates were transferred at 4° C., and all subsequent operations were done at 4° C. […] After 3 h, cells were washed five times with binding buffer and solubilized by the addition of 0.5 M NaOH. The amount of radioactivity bound to the cells was counted in a gamma counter (LKB 1261 Multigamma). The receptor affinity and the number of binding sites per cell were determined by Scatchard's analysis (Scatchard, 1986).

KDR [2] = test: ELISA of the phage-displayed peptide binding to CHO-KDR cells; details: clones selected by anti-VEGF antibody binding, 10^12 pfu/ml
Description: FIG. 2. […] Clones selected by KDR binding (10^13 pfu/ml) (A) or by anti-VEGF antibody binding (10^12 pfu/ml) (B) were compared with M13 phage particles (control). Results are representative of three independent assays.
Exponentially growing CHO-KDR cells were seeded in 96-well microtiter plates at 7×10^4 cells/well and left overnight at 37° C. Cells were fixed with paraformaldehyde (4% in PBS) for 15 min at room temperature and washed with PBS. Wells were then filled with PBS-Glycine 0.2%, kept for 15 min at room temperature and then washed with PBS. Phage particles (10^12 or 10^13/ml) were added to each well and incubated 2 h at room temperature. Wells were washed with PBS and the amount of bound phage was detected with peroxidase-conjugated anti-M13 phage serum (Pharmacia Biotech, Uppsala, Sweden).

[3] = system: Calf pulmonary artery endothelial cells (CPAE); test: CPAE cell proliferation assay (BrdU incorporation); assay type: cell-based; details: 2.1×10^−4M synthetic peptide, 24 h
Description: FIG. 3. The anti-VEGF antibody blocks CPAE cell growth. CPAE cell growth was measured in cultures supplemented with various concentrations of anti-VEGF antibody and compared with untreated cultures. Data represent means and standard deviations of proliferation inhibition for triplicate samples and are representative of two independent experiments.
FIG. 6. V1 inhibits CPAE cell proliferation. CPAE cell growth was measured after 24h of incubation in presence of synthetic peptides selected by antibody binding (A) or by KDR binding (B) and compared with untreated cultures. Data represent means and standard deviations of proliferation inhibition for triplicates and are representative of three independent experiments.
(§2) Cell proliferation assay. To test the anti-VEGF antibody neutralizing effect, CPAE cells were plated into 96-well tissue culture plates at a density of 500 cells/well. After 24 h, various concentrations of anti-VEGF antibody were added. The cells were cultured for an additional day and cell proliferation was measured using the Cell proliferation ELISA kit from Boerhinger (Indianapolis, Ind.). Cells were incubated with BrdU for 4 h at 37° C., and the incorporation of BrdU in newly synthetized DNA was quantified by immunoassay as described by the manufacturer. To investigate the peptide effect, after 24 h of CPAE cell growth, 2.1×10^−4M synthetic peptides were added daily to the culture medium. Cell proliferation was assessed after 24 h, 48 h or 72 h as described above. […] Cells were trypsinized and counted after 5 days using a Coulter counter.

[4] = system: Human Umbilical Artery Endothelial Cells (HUAE); test: HUAE cell proliferation induced by VEGF; assay type: cell-based; details: 2 ng/ml VEGF, peptide daily, 5 days
Description: (§3) FIG. 7. […] Cells were counted after 5 days. Data are means of proliferation inhibition percentages for triplicate samples.
as §2

KDR [5] = biological target: T1, KDR (Homo sapiens, UniProt P35968); test: HUAE cell proliferation induced by KDR anti-idiotypic antibodies (AIA); assay type: cell-based; details: 100 ng/ml KDR anti-idiotypic antibodies, peptide daily, 5 days
T1 construct: endogenous in cells; host or cells: HUAE cells
Description: as §3, §2

NIH 3T3 fibroblasts = test: NIH3T3 fibroblast proliferation; assay type: cell-based; details: 24 h
Description: FIG. 8. V1 acts specifically on endothelial cells. CPAE and NIH 3T3 fibroblasts were cultured with or without V1 peptide, and the changes in cell proliferation were measured after 24 h. Data represent the means and standard deviations of proliferation inhibition percentages for triplicate samples, and similar results were obtained in two independent experiments.
as §2

[6] = system: VEGF-induced corneal angiogenesis; test: Rabbit corneal pocket assay; assay type: in vivo, New Zealand rabbit; details: day 12; for effect on VEGF-induced corneal angiogenic response: implant 2 pmol VEGF + 30 nmol peptide; for neovascularization by peptide compared with vehicle alone: implant 30 nmol peptide, absence of VEGF
Description: FIG. 9. V1 inhibits corneal angiogenesis in vivo.
Rabbit corneal pocket assay. […] These implants were inserted in New Zealand rabbit (Elevage du Trottis, Esperce, France) corneal stroma 2 mm away from the limbus (Favard et al, 1991). Neovascularization was assessed on day 12 by direct examination with a slit lamp and scored according to a 4 grade scale (grade 1: less than 1 mm long neovessels, grade 2: 1 mm long neovessels, grade 3: 1 to 2 mm long neovessels, grade 4: neovessels extending to the implant). Means and standard deviations were determined on 8 implant groups for each condition.

KDR [7] = test: Displacement of 125I-VEGF165 binding to CHO-KDR transfected cells by V1 derivatives; details: for Efficiency (% Emax): relative to V1 = 100; for peptide efficiency after change of C-terminal arginine: compared with V1
Description: FIG. 11. […] Experimental conditions are indicated in the legend of FIG. 10.
FIG. 12. […] Experimental conditions are indicated in the legend of FIG. 10.
(§4) Experimental conditions are indicated in the legend of FIG. 10.
FIG. 17. […] Experimental conditions are indicated in the legend of FIG. 10.

[8] = system: Human umbilical vein endothelial cell (HUVEC); test: VEGF165 induced HUVEC proliferation; assay type: cell-based; details: V1 400 μg/ml, various VEGF165 concentrations, 96 hours
Description: FIG. 13. Effect of V1 (400 μg/ml) VEGF165 induced HUVEC proliferation. Various concentrations of VEGF165 were added during 96 hours.
The inhibitory effect of V1 on Human umbilical vein endothelial cell (HUVEC) in primary culture.

VEGF-R2 on HUV-EC Cells = test: 125I-VEGF165 binding to HUV-EC cells (Scatchard); set-up: species or system human; details: V1 40 μg/ml
Description: as §4
(see FIGS. 16A, B and C).

[9] = system: 125I-VEGF-receptor complexes (VEGF-R2, NP1) on HUV-EC cells; test: Cross linking of 125I VEGF165 to HUV-EC cells; assay type: binding, human; details: V1 2.4×10^−4M and 4.8×10^−4M, 125I VEGF165 160 pM
Description: FIG. 19. […] 1: Total binding. […] 3: V1, (2.4×10^−4M). 4: V1, (4.8×10^−4M).

[10] = biological target: T2, recombinant KDR expressed at the membrane surface of CHO-KDR cells (UniProt P35968 20-1356, limits assumed); test: displacement of 125I-VEGF165 from CHO-KDR transfected cells
T2 construct: whole, on cells; also called VEGFR-2; VEGF-R2
Description: as §1, with “5×10⁵” for “5×10^5”

[11] = heparin various amounts, PlGF 50 ng/ml

T1 sequence (P35968 20-1356): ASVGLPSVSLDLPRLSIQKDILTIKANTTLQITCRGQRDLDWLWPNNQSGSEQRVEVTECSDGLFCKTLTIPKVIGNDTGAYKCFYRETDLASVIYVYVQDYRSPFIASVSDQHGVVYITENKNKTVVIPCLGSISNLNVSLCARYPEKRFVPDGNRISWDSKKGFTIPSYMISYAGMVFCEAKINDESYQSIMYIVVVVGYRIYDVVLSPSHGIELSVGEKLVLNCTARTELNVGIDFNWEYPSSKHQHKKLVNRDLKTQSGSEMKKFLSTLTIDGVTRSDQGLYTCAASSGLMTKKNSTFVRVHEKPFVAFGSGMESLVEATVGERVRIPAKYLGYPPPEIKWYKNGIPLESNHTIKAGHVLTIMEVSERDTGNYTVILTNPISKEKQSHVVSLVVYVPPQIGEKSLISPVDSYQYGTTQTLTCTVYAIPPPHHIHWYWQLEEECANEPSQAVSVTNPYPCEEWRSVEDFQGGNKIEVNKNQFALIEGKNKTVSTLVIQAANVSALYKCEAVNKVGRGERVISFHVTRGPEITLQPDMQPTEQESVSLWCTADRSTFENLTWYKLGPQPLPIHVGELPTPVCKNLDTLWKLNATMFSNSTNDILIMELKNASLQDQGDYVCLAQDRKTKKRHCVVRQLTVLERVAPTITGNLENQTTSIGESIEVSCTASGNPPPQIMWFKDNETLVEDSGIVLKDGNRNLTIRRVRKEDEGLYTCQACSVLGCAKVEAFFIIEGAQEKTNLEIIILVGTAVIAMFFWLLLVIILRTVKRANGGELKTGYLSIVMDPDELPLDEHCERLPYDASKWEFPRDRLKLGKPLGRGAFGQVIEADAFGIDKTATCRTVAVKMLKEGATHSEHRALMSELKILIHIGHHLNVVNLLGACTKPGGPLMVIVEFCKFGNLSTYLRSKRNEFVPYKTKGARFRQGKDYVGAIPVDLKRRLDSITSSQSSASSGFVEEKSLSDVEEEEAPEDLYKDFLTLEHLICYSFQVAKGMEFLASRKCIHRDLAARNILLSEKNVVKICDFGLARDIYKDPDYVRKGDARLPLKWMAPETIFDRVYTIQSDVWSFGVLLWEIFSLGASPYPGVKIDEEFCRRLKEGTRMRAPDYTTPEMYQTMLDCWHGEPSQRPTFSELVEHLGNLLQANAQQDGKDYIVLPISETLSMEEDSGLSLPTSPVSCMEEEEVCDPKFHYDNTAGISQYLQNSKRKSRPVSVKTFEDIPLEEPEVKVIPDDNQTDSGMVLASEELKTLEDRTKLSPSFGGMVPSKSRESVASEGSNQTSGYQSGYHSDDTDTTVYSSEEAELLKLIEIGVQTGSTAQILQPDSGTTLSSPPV
T2 sequence (P35968 20-1356 limits assumed): as the sequence (P35968 20-1356) above

ATWLPPR [V1, ATWLPPR]
block of VEGF binding to CHO-KDR cells (KDR [1]): nearly block VEGF binding | inhibitory effect on VEGF binding to KDR (KDR [1]): showed an inhibitory effect | IC50 (KDR [1]; read-out: IC50 for inhibition of VEGF binding to CHO-KDR cells, estimated): 80 µM | ELISA signal of phage clone binding to CHO-KDR cells (KDR [2]): best reactivities | reduction of CPAE cell proliferation [3]: 60% | effect on VEGF-induced proliferation of human endothelial cells [4]: suppressed the mitogenic activity of VEGF in a dose dependent manner | effect on AIA-dependent cell proliferation (KDR [5]): could suppress the AIA-dependent cell proliferation | effect on NIH 3T3 fibroblast proliferation (NIH 3T3 fibroblasts): did not modify the proliferation | effect on VEGF-induced corneal angiogenic response [6]: totally abolished | neovascularization by peptide compared with vehicle alone [6]: did not improve the generation of new blood vessels | effect on binding and affinity of 125I VEGF165 to VR2 on transfected CHO cells (KDR [7]; 50 μg/ml V1, Scatchard): inhibited the binding; also recorded: affinity is lowered | IC50 (KDR [7]; 125I-VEGF 7 pM, heparin 1 μg/ml, 3 hours +4° C., read-out: CI50 (the source's name)): 18.8 µM | effect on heparin agonistic effect on VEGF165 binding (KDR [7]; V1 50 μg/ml): inhibited this heparin agonistic effect | Efficiency (% Emax) (KDR [7]): 100 % Emax | effect on VEGF-induced HUVEC proliferation [8]: inhibited by V1 in a non competitive manner | effect on VEGF binding to HUV-EC receptors (VEGF-R2 on HUV-EC Cells): inhibited only the VEGF binding to high affinity receptors | labeling of 125I-VEGF-receptor complexes (240-260 kDa and 160-170 kDa) [9]: decreased

AAWLPPR [A2]
Efficiency (% Emax) (KDR [7]): 61 % Emax

ILDNYKL [V5]
effect on VEGF binding to CHO-KDR cells (KDR [1]; various concentrations, same conditions as V1): did not modify VEGF binding | effect on VEGF-induced proliferation of human endothelial cells [4]: no inhibitory effect | effect on VEGF-induced corneal angiogenic response [6]: not modified | neovascularization by peptide compared with vehicle alone [6]: did not improve the generation of new blood vessels

LPPNPTK [V6]
inhibitory effect on VEGF binding to KDR (KDR [1]): did not affect the binding of VEGF to KDR; also recorded: no effect on VEGF binding to KDR | ELISA signal of phage clone binding to CHO-KDR cells (KDR [2]): best reactivities | reduction of CPAE cell proliferation [3]: significantly inhibited the proliferation of endothelial cells

ATALPPR [A3]
Efficiency (% Emax) (KDR [7]): 70 % Emax

SLPAHAR [K4]
inhibitory effect on VEGF binding to KDR (KDR [1]): could partially inhibit VEGF binding to KDR | reduction of CPAE cell proliferation [3]: minor effect on endothelial growth

ATWLPAR [A6]
Efficiency (% Emax) (KDR [7]): 84 % Emax

AAWLPPK [A9, V1 analogue, C-terminal arginine substituted by lysine]
peptide efficiency after change of C-terminal arginine (KDR [7]): also reduced the peptide efficiency

ATWAPPR [A4]
Efficiency (% Emax) (KDR [7]): 31 % Emax

heparin [reference compound]
optimal heparin concentration for increasing VEGF binding (KDR [1]): 1.8 µg/mL | effect on VEGF binding to CHO-KDR cells (KDR [1]; [11]): increase the binding of VEGF

ATWLAPR [A5]
Efficiency (% Emax) (KDR [7]): 65 % Emax

ATWLPPA [A7]
activity of alanine-substituted analogues in displacement of 125I-VEGF165 (KDR [7]; AlaScan): totally devoid of activity | Efficiency (% Emax) (KDR [7]): 0 % Emax

ATALPP [A10]
peptide efficiency after change of C-terminal arginine (KDR [7]): significantly reduced the peptide efficiency

B1: V1 analogue A7 (Ala7-substituted analogue) (peptide)
peptide: ATWLPPA
notes: AlaScan analogue of ATWLPPR
Efficiency (% Emax) [10]: 0 % Emax

B2: PlGF: placenta growth factor (R & D Systems) (protein)
chain: AVPPQQWALSAGNGSSEVEVVPFQEVWGRSYCRALERLVDVVSEYPSEVEHMFSPSCVSLLRCTGCCGDENLHCVPVETANVTMQLLKIRSGDRPSYVELTFSQHVRCECRPLREKMKPERCGDAVPRR
effect on VEGF binding to CHO-KDR cells (KDR [1]; [11]): not modifying VEGF binding
